This experiment has as its system ogt mRNA. The experiment can be described thus: ogt mRNA expression in HepG2 cells cultured with glucose, MGO and other sugars/aldehydes. Type of experiment: cell-based. Conditions: MGO, 24 hours. How it is done: The HepG2 cells were cultured in a cell culture medium containing glucose, fructose, methylglyoxal (MGO), glyoxal (GO), glyceraldehyde 3-phosphate (G3P), glyceraldehyde, and glycolaldehyde for 24 hours, respectively, and the expression level of ogt mRNA was measured and shown in FIG. 5.

Each structure is given as a SMILES string.

Consider `CC(=O)C=O` [MGO, methylglyoxal], for which the “ogt mRNA expression compared to the control group” value is recorded as “increased nearly twice”.

The values are drawn from patent US20240024402A1, “COMPOSITION FOR IMPROVING INSULIN SENSITIVITY, CONTAINING GENTIANA TRIFLORAL PALLAS EXTRACT” (MTHERA PHARMA CO., LTD., priority 2020, published 2024).
